Laboratory results: paper PMC7038073, “Substituted Piperazines as Novel Potential Radioprotective Agents” (Molecules, 2020)
Where “and” joins values, the source holds several entries; their conditions need not be identical. Equal values may be shown once.

Key:
[1] = WST-1 cytotoxicity test, PANC-1; assay type: cell-based; settings: human, PANC-1 cells, 48 h, WST-1, mean ± SD of three experiments, read-out: relative viability (%) compared to untreated control; for viability at 48 h, 10 µM: PANC-1, 10 µM; for viability at 48 h, 100 µM: PANC-1, 100 µM
Protocol: In this study, the cytotoxic effects of nine new compounds (2, 3, 4, 5, 6, 7, 8, 9, 10) were tested on 10 human cell lines (nine cancer and one non-cancer cell line). The cell lines were treated with each compound at concentrations of 10 µM and 100 µM for 48 h. The proliferation capacity of the treated cells was determined by WST-1 test and compared against the proliferation rate of the untreated control cells (100%).
The cell lines Jurkat, MOLT-4, A2780, A549, HT-29, PANC-1, HeLa, MCF-7, SAOS-2, and MRC-5 (all purchased from Sigma Aldrich, Czech Republic) were included in this study. All cell lines were maintained according to the provider’s guidelines, and plated and treated in 96-well plates (500 to 30 × 10^3 cells per well). The tested compounds 2, 3, 4, 5, 6, 7, 8, 9, and 10 were dissolved in 0.1% DMSO and kept in 10 mM stock solutions. Before use, the stock solution was diluted in culture media at ratios of 1:100 and 1:1000. The studied cell lines were treated with the compounds 2, 3, 4, 5, 6, 7, 8, 9, and 10 at concentrations of 10 and 100 µM for 48 h. Control cells were tested in culture media with and without DMSO (0.1%). The cells were also treated with 1 µM doxorubicin as a cytotoxicity control.
The WST-1 (2-(4-iodophenyl)-3-(4-nitrophenyl)-5-(2,4-disulfophenyl)-2H-tetrazolium, monosodium salt) test (Roche, Mannheim, Germany) was used according to the manufacturer’s protocol to determine cell viability in all 10 cell lines 48 h after treatment with the tested compounds. The cells were analyzed in a Tecan Infinite M200 spectrometer (Tecan Group, Männedorf, Switzerland) at 440 nm.

[2] = Safe use evaluation in vivo (MTD, symptoms, blood biochemistry, histopathology); set-up: key to piloerection / ataxia / prostration / tremor / excitation / saber-like tail / stooping / hyper/hypoventilation / drop of eyelids / lacrimation / convulsion: + (mild); ++ (moderate); +++ (severe); settings: both sexes, mouse, in vivo, ip; BALB/c mice, i.p., two males and two females per group; read-out: MTD (maximum tolerated dose)
Description: (§1) Mild to moderate signs of intoxication could be observed once the MTD (maximum tolerated dose) was reached. In vivo, MTD is described as the highest dose of a given compound that can be administered before showing signs of toxicity (based on the same dose regimen or series) and whose excess would be expected to be fatal, yielding unreliable results. Therefore, a staged approach (including core and intermediate dose levels) has become a suitable strategy in this regard.
(§2) The symptoms described in Tables S1 (in Supplementary Materials) and S2 (in Supplementary Materials) diminished spontaneously within 2 h. After observing these symptoms, MTD thresholds were set at 100, 200, 100, 200, 2000, and 650 mg/kg for compounds 4, 5, 6, 7, 8, and 10, respectively. Animals receiving MTD were further examined by necropsy 48 h after administration. Plasma (reflecting biochemical changes in blood), intestine with mesentery (site of administration), and liver and kidney (elimination organs) were collected to evaluate the toxic potential of the tested compounds. For evaluation of the impact of the compounds on organ function, we performed blood biochemistry test 48 h after administration. The test focused on seven important indicators: glucose and amylase for normal function of pancreas, alanine aminotransferase (ALT), aspartate aminotransferase (AST), and alkaline phosphatase (ALP) for the normal function of liver, and urea and creatinine for the normal function of kidneys. […] According to Thoolen et al., focal necrosis can be occasionally seen in untreated rodents and therefore is not pathognomonic of hepatotoxicity, which is consistent with our findings.
(§3) Both male and female BALB/c mice (Velaz s r.o., Prague, Czech Republic) with an average weight of 21 ± 0.8 g and 21 ± 0.8 g, respectively, were selected for the safe use evaluation in vivo. The mice were housed in environmentally controlled breeding units (Faculty of Military Health Sciences vivarium; temperature 21 ± 1 °C, 12/12 h light/dark cycle) with access to food (Cerea corp., Pardubice, Czech Republic) and water ad libitum. The acclimatization period of the mice was at least 10 days before each experiment. All experimental procedures and protocols were reviewed and approved by the Ethics Committee of the Faculty of Military Health Sciences in Hradec Kralove, University of Defence in Brno. Compounds 2, 3, 4, 5, 6, 7, 8, 9, and 10 were dissolved in physiological saline solution (B. Braun Melsungen AG, Melsungen, Germany) and injected intraperitoneally (i.p.) into the corresponding mouse groups, which were composed of two males and two females. Several doses were administered to determine the maximum tolerated dose (MTD), which was assessed by close observation for signs of toxicity within the first two hours after administration of the compounds, and then regularly over the following 48 h. The observed symptoms were registered according to the laboratory Animal Science Association UK guidelines (for a detailed description, see [36]. After 48 h, the surviving animals were euthanized with CO2 and evaluated by basic macroscopic necropsy. Venous blood was collected into heparinized tubes (Scanlab Systems, Prague, Czech Republic) and the plasma was separated in a U-320R centrifuge (Boeco, Hamburg, Germany) to further evaluate the toxic potential of the tested compounds. The concentrations of glucose, urea, and creatinine and the levels of alanine aminotransferase (ALT), aspartate aminotransferase (AST), alkaline phosphatase (ALP), and amylase were evaluated in a qualified biochemical laboratory of the University Hospital Hradec Kralove (Hradec Kralove, Czech Republic). Additionally, intestine, liver, and kidney samples were collected for histopathologic examination. […]

BALB/c mice = assay: as above; set-up: key to piloerection / ataxia / prostration / tremor / excitation / saber-like tail / stooping / hyper/hypoventilation / drop of eyelids / lacrimation / convulsion: + (mild); ++ (moderate); +++ (severe); settings: for ALP / ALT / AST / Amylase / Creatinine / Glucose / Urea: plasma 48 h after MTD i.p.
Description: as §1, §2, §3

A549 cells = assay: MTT assay, IC50 and MTC; settings: for IC50 fold higher than that for compound 2 / MTC (maximum tolerated concentration): A549 cells, MTT; for MTC (maximum tolerated concentration): 24 h of treatment; for IC50: Homo sapiens, A549, 24 h, read-out: IC50 ± SEM
Protocol: In further experiments, MTT (3-(4,5-di-methylthiazol-2-yl)-2,5-diphenyltetrazolium bromide) assay was employed to evaluate the toxicological indexes of the newly synthesized compounds, including IC50 (half-maximal inhibitory concentration) and MTC (maximum tolerated concentration).
IC50 and MTC were determined through MTT assays. The MTT assay was performed according to [35]. In brief, the A549 cell line was plated in 96-well plates (100 µL, 9 × 10^3 cells per well) and incubated overnight. The tested compounds were prepared in phosphate buffer saline (PBS; Sigma–Aldrich) and serially diluted in DMEM (Dulbecco’s Modified Eagle Medium). An untreated control was included as a viability standard in each plate. After 24 h of treatment, the viability of A549 cells was measured at 570 nm. All experiments were performed in triplicate. The GraphPad Prism statistics software v5.04 (GraphPad Software Inc., San Diego, CA, USA) was used to calculate the IC50 values for parameter nonlinear regression. Values are expressed as mean ± SEM.

[3] = female BALB/c mice, animals 1 and 2
[4] = female mice, at MTD i.p., animals 1 and 2
[5] = male BALB/c mice, animals 1 and 2
[6] = male mice, at MTD i.p., animals 1 and 2

SMILES | viability at 48 h, 10 µM [1] [%] | viability at 48 h, 100 µM [1] [%] | MTD at 48 h [2] [mg/kg] | ALP (BALB/c mice; [3]) | ALT (BALB/c mice; [3]) | AST (BALB/c mice; [3]) | Amylase (BALB/c mice; [3]) | Creatinine (BALB/c mice; [3]) | Glucose (BALB/c mice; [3]) | Urea (BALB/c mice; [3]) | ataxia (BALB/c mice; [4]) | hyper/hypoventilation (BALB/c mice; [4]) | prostration (BALB/c mice; [4]) | ALP (BALB/c mice; [5]) | ALT (BALB/c mice; [5]) | AST (BALB/c mice; [5]) | Amylase (BALB/c mice; [5]) | Creatinine (BALB/c mice; [5]) | Glucose (BALB/c mice; [5]) | Urea (BALB/c mice; [5]) | also measured
Cl.Cl.Cl.OCCN1CCN(CCCNc2cccc3ccccc23)CC1 [Compound 6, 2-(4-(3-(naphthalen-1-ylamino)propyl)piperazin-1-yl)ethanol trihydrochloride] | 92 ± 11 | 111 ± 5 | 100 | 86 U/L and 95 U/L | 29 U/L and 27 U/L | 53 U/L and 50 U/L | 2922 U/L and 2835 U/L | 22 µg/dL and 34 µg/dL | 199 mg/dL and 212 mg/dL | 65 mg/dL and 55 mg/dL | ++ | ++ | + | 38 U/L and 36 U/L | 28 U/L and 25 U/L | 64 U/L and 62 U/L | 2124 U/L and 2086 U/L | 45 µg/dL and 23 µg/dL | 130 mg/dL and 177 mg/dL | 42 mg/dL and 35 mg/dL | drop of eyelids (BALB/c mice; [4]): +; stooping (BALB/c mice; [4]): ++; ataxia (BALB/c mice; [6]): +; drop of eyelids (BALB/c mice; [6]): +; hyper/hypoventilation (BALB/c mice; [6]): ++; piloerection (BALB/c mice; [6]): +; prostration (BALB/c mice; [6]): +; stooping (BALB/c mice; [6]): ++; tremor (BALB/c mice; [6]): +; weight at 48 h (%) (BALB/c mice; [6]): -2.3% and -3.0%; IC50 fold higher than that for compound 2 (A549 cells): 11.3 fold; MTC (maximum tolerated concentration) (A549 cells): 0.02 mM; IC50 (A549 cells): 450 ± 10 µM
Cl.Cl.Cl.OCCN1CCN(CC(O)CNc2ccccc2)CC1 (stereo not drawn) [Compound 10, 1-(phenylamino]-3-[4-(2-hydroxyethyl)piperazin-1-yl)propan-2-ol trihydrochloride] | 95 ± 7 | 111 ± 6 | 650 | 67 U/L and 73 U/L | 27 U/L and 24 U/L | 55 U/L and 56 U/L | 1939 U/L and 1826 U/L | 68 µg/dL and 67 µg/dL | 225 mg/dL and 178 mg/dL | 38 mg/dL | + | + | ++ | 42 U/L and 61 U/L | 24 U/L and 30 U/L | 58 U/L and 51 U/L | 2212 U/L and 2080 U/L | 34 µg/dL | 189 mg/dL and 236 mg/dL | 47 mg/dL and 43 mg/dL | histopathological change: focal necrosis (BALB/c mice; at MTD i.p., necropsy 48 h after administration, one animal each): five small foci; convulsion (BALB/c mice; [4]): +; excitation (BALB/c mice; [4]): +; tremor (BALB/c mice; [4]): +; weight at 24 h (%) (BALB/c mice; [4]): -1.5% and -5.6%; ataxia (BALB/c mice; [6]): +; excitation (BALB/c mice; [6]): +; hyper/hypoventilation (BALB/c mice; [6]): +; prostration (BALB/c mice; [6]): ++; tremor (BALB/c mice; [6]): +; IC50 fold higher than that for compound 2 (A549 cells): 126.5 fold; MTC (maximum tolerated concentration) (A549 cells): 1.56 mM; IC50 (A549 cells): 5060 ± 230 µM
